Several values for one entry are separate records, joined by “and”; a condition that tells them apart may be missing. Equal entries are not always repeated.

With `ClC(Cl)c1ccc(C(Cl)Cl)cc1` [1,4-bis(dichloromethyl)benzene], the melting point was determined as 93 °C.

`O=Cc1cc2c(cc1[N+](=O)[O-])OCO2` [6-nitropiperonal] registered a melting point of 95 °C.

Regarding `CC(C)C(N)=O` [isobutyramide], the melting point turned out to be 129 °C.

Compound `COC(C)=O` [methyl acetate] gave a melting point of -98 °C.

With `CC12CCC3C(CCC4CC(O)CCC43C)C1CCC2=O` (configuration not stated) [3-Hydroxyandrostan-17-one], the melting point was 174 °C.

`N#Cc1ccccc1C(N)=O` [o-cyanobenzamide]: the melting point worked out at 172 °C.

Consider `c1ccc2[nH]cnc2c1` [benzimidazole], for which the melting point is 170 °C and 172 °C.

Compound `CCCCCCCCCCS(=O)(=O)Cl` [1-decanesulfonyl chloride] showed a melting point of 32 °C.

Consider `O=C(O)c1cccc([N+](=O)[O-])c1C(=O)O` [3-nitrophthalic acid], for which the melting point is 212 °C.

The compound `O=S(=O)(Cl)c1cc(Cl)cc(Cl)c1` [3,5-dichlorobenzenesulfonyl chloride] came in with a melting point of 32 °C.

Compound `CC(C(=O)O)c1ccc(-c2ccccc2)c(F)c1` (stereo not drawn) [2-fluoro-alpha-methyl-4-biphenylacetic acid] yielded a melting point of 113 °C.

Consider `FC(F)(F)C(F)(F)F` [Hexafluoroethane], for which the melting point is -100 °C.

For the compound `N#CCC(=O)NN` [cyanoacetic acid hydrazide], the melting point was 108 °C.

For `c1ccc2c(c1)Oc1ccccc1S2` [phenoxathiin], the melting point came out at 57 °C.

Compound `CN1CCCN(C)CCN(C)CCCN(C)CC1` [1,4,8,11-tetramethyl-1,4,8,11-tetraazacyclotetradecane] registered a melting point of 35 °C.

Turning to `CCCCCCCCCCCCCCCCCCCCCCCCCCCCC` [Nonacosane], the melting point stood at 66 °C.

For the compound `CCOC(=O)C(C#N)=Cc1ccccc1` [Ethyl 2-Cyano-3-Phenylacrylate], the melting point was determined as 49 °C.

For the compound `CC(=O)OCC1OC(OCc2ccccc2)C(OC(C)=O)C(OC(C)=O)C1OC(C)=O` (configuration not stated), the melting point was found to be 98 °C.

Regarding `ClCc1ccc(Cl)cc1Cl` [2,4-dichlorobenzyl chloride], the melting point was -3 °C.

Compound `C[C@]12CCC(=O)C=C1CC[C@@H]1[C@@H]2[C@@H](O)C[C@@]2(C)[C@H]1CC[C@]2(O)C(=O)CO` [Hydrocortisone] gave a melting point of 220 °C.

`CC(=O)OCC(COC(C)=O)OC(C)=O` [triacetin] gave a melting point of 3 °C.

As for `Cc1ccc(CO)cc1` [4-methylbenzyl_alcohol], the melting point was 61 °C.

As for `O=C(O)c1cc(/N=N/c2ccc(S(=O)(=O)Nc3ccccn3)cc2)ccc1O` [Sulfasalazine], the melting point was determined as 220 °C.

Consider `Cc1ccc(-n2c(C)cc(C=O)c2C)cc1` [OSM-S-29], for which the melting point is 110 °C.

Turning to `O=c1[nH]cc(C(F)(F)F)c(=O)[nH]1` [5-(trifluoromethyl)uracil], the melting point is 253 °C.

For the compound `O=Cc1cccc(O)c1O` [2,3-dihydroxybenzaldehyde], the melting point came out at 108 °C.

As for `COc1ccc(CN)cc1` [4-methoxybenzylamine], the melting point was -10 °C.

`NNC(=O)c1ccc(Br)cc1` [4-bromobenzhydrazide] yielded a melting point of 168 °C.

On to `CC(=O)Nc1ccc(C(C)C)cc1` [4'-isopropylacetanilide], for which the melting point turned out to be 104 °C.

`O=S(=O)([O-])CCN1CC[NH+](CCO)CC1` [2-[4-(2-Hydroxyethyl)piperazin-4-ium-1-yl]ethanesulfonate] yielded a melting point of 236 °C.

`O=C1CNC(=O)N1` [hydantoin] returned a melting point of 222 °C.

`N#CCC(=O)c1cccs1` [3-oxo-3-(2-thienyl)propionitrile]: the melting point turned out to be 134 °C.

For the compound `Cc1c(N=C=O)cccc1N=C=O` [toluene-2,6-diisocyanate], the melting point came out at 13 °C.

Compound `OC[C@@H](O)[C@H](O)[C@@H](O)CO` [D-Xylitol] yielded a melting point of 104 °C.

`CCOC(=O)c1cc(C)[nH]n1` [Ethyl 5-methyl-1H-pyrazole-3-carboxylate] yielded a melting point of 87 °C.

In the case of `O=C(O)CCCc1ccccc1` [4-phenylbutyric acid], the melting point amounted to 52 °C.

As for `CC1=C(/C=C/C(C)=C/C=C/C(C)=C/C=C/C=C(C)/C=C/C=C(C)/C=C/C2=C(C)CCCC2(C)C)C(C)(C)CCC1` [B-carotene], the melting point is 183 °C (2×) and 180 °C.

In turn, `OCCCCCCCCCCO` [1,10-decanediol] yielded a melting point of 73 °C.

For `CCCCCCCCCC` [Decane], the melting point was -30 °C and -29.7 °C.

With `Cc1ccc(/C=C(\C(N)=O)c2nc3ccccc3s2)cc1`, the melting point came out at 149 °C.

In turn, `O=C(O)c1ccccc1/N=N/c1ccc(O)cc1` [2-(4-hydroxyphenyl-azo)benzoic acid] gave a melting point of 206 °C.

For `CCOC(C)(C)C` [tert-butyl ethyl ether], the melting point is -94 °C.

Take `OC[C@@H](O)[C@@H](O)[C@H](O)[C@H](O)CO` [mannitol]: the melting point turned out to be 168 °C.

In the case of `Cc1ccc(C)o1` [2,5-dimethylfuran], the melting point was -62 °C.

As for `O=C(/C=C/c1ccc(-c2ccc([N+](=O)[O-])cc2)o1)c1ccccc1` [(2E)-3-[5-(4-Nitrophenyl)-2-furyl]-1-phenylprop-2-en-1-one], the melting point was found to be 158 °C.

`O=[N+]([O-])c1ccccc1O` [o-nitrophenol] gave a melting point of 45 °C.

Regarding `CCCCCCCCCCCC(C)=O` [Tridecan-2-one], the melting point came to 24 °C.

In turn, `Cc1cnc(NC(=O)C2=C(O)c3ccccc3S(=O)(=O)N2C)s1` [Meloxicam] registered a melting point of 254 °C.

For `CN(C)C(=O)Nc1ccc(Cl)c(Cl)c1` [3-(3,4-dichlorophenyl)-1,1-dimethylurea], the melting point was 158 °C.

`Cl/C(Cl)=C/C3C(C(=O)OC(C#N)c2cccc(Oc1ccccc1)c2)C3(C)C` (configuration not stated) displayed a melting point of 68.5 °C.

Compound `C=CCOc1ccc(CC(=O)O)cc1Cl` [Alclofenac] returned a melting point of 92 °C.

On to `N#Cc1ccccc1N1CCCCC1` [2-(1-piperidinyl)benzonitrile], for which the melting point was 43 °C.

`CC(C)c1cccc(C(C)C)c1` [1,3-diisopropylbenzene]: the melting point is -63 °C.

For the compound `OC[C@H]1O[C@H](O)[C@H](O)[C@@H](O)[C@@H]1O` [glucose], the melting point was 150 °C and 146 °C (3×) and 147 °C.

In the case of `COC(=O)c1ccc(I)cc1` [methyl 4-iodobenzoate], the melting point was found to be 115 °C.

For `Cc1ccc(S(=O)(=O)OI(O)c2ccccc2)cc1` [hydroxy(tosyloxy)iodobenzene], the melting point is 134 °C.

`C1CC[C@H]2CCCC[C@H]2C1` [cis-decahydronaphthalene] yielded a melting point of -43 °C.

Regarding `Cc1cc(C)cc(B(O)O)c1` [3,5-dimethylbenzeneboronic acid], the melting point is 236 °C.

On to `O=C(CBr)c1ccc(Br)cc1` [2,4'-dibromoacetophenone], for which the melting point was found to be 110 °C.

Turning to `CCCCCCCCCCCCC` [tridecane], the melting point is -5 °C.

`N#Cc1cccc(C(=O)O)c1` [3-cyanobenzoic_acid]: the melting point is 223 °C.

With `O=C1CCC(c2ccc(Br)cc2)=NN1` [6-(4-bromophenyl)-4,5-dihydro-3(2h)-pyridazinone], the melting point worked out at 169 °C.

`Oc1cc(Cl)ccc1Oc1ccc(Cl)cc1Cl` [5-Chloro-2-(2,4-dichlorophenoxy)phenol] had a melting point of 57 °C.

Regarding `CC[C@H](C)C(=O)O[C@H]1C[C@H](O)C=C2C=C[C@H](C)[C@H](CC[C@@H](O)C[C@@H](O)CC(=O)O)[C@H]21` [Pravastatin], the melting point came to 326 °C.

For the compound `O=C(O)Cc1ccc(Oc2ccccc2)cc1` [4-phenoxyphenylacetic acid], the melting point was 76 °C.

In the case of `Cc1ccc(N)c(C)c1` [2,4-dimethylaniline], the melting point is -15 °C.

The compound `CC(C)(c1ccccc1)c1ccc(O)cc1` [4-(2-Phenylpropan-2-yl)phenol] gave a melting point of 71.5 °C.

Compound `C#CC(C)(C)C` [3,3-dimethyl-1-butyne] came in with a melting point of -78 °C.

Consider `CC(=O)N(Nc1ccccc1/N=N/c1ccccc1)c1ccccc1` [N-phenyl-N'-{2-[(E)-phenyldiazenyl]phenyl}acetohydrazide], for which the melting point was found to be 103 °C.

For the compound `c1ccc(Oc2ccccc2)cc1` [diphenyl ether], the melting point worked out at 28 °C.

`O=S(=O)(Cl)c1cccc(Cl)c1Cl` [2,3-dichlorobenzenesulfonyl chloride] gave a melting point of 60 °C.

`COc1c(Cl)cccc1Cl` [2,6-dichloroanisole] had a melting point of 10 °C.

`C(=C\c1ccccc1)/c1ccccc1` [trans-stilbene] came in with a melting point of 124 °C.

As to `CCCCCCCCCCCCCCc1ccccc1` [N-tetradecylbenzene], the melting point was determined as 9 °C.

Consider `COc1cccc(OC)c1B(O)O` [2,6-dimethoxybenzeneboronic acid], for which the melting point was 107 °C.

With `Cc1cc(CC(=O)O)n(C)c1C(=O)c1ccc(Cl)cc1` [Zomepirac], the melting point was determined as 178 °C.

`CC1=NCCN1` [2-methyl-2-imidazoline] yielded a melting point of 100 °C.

`Oc1cc(C(F)(F)F)n2nc(-c3ccc(Cl)cc3)cc2n1` showed a melting point of 156 °C.

For `NC12CC3CC(CC(C3)C1)C2` [1-adamantylamine], the melting point is 180 °C.

As for `O=C(Nc1ccc([N+](=O)[O-])cc1[N+](=O)[O-])C(C(F)(F)F)C(F)(F)F`, the melting point is 121 °C.

Regarding `Nc1ccc(C(=O)O)cc1` [4-Aminobenzoic Acid], the melting point is 188 °C.

On to `CC12CCC(C(=O)/C(=C\c3ccccc3[N+](=O)[O-])C1=O)C2(C)C` (configuration not stated), for which the melting point came to 141 °C.

As for `CCc1ccc2c(c1)C(=O)c1ccccc1C2=O` [2-Ethylanthraquinone], the melting point worked out at 109 °C.

Take `O=C4\C=C2/[C@]([C@H]1CC[C@@]3([C@@H](C(=O)CO)CC[C@H]3[C@@H]1CC2)C)(C)CC4` [deoxycorticosterone]: the melting point stood at 142 °C.

In turn, `ClC(Cl)Cl` [Chloroform] yielded a melting point of -63 °C.

On to `N#CCC(=O)N1CCCC1` [1-(cyanoacetyl)pyrrolidine], for which the melting point was determined as 73 °C.

The compound `Cc1cccc2c1Cc1ccccc1-2` [1-methylfluorene] showed a melting point of 85 °C.

The values are drawn from the Bradley open melting point set (2014).
